Experimental data published in patent US8138174B2, “Compounds with a combination of cannabinoid CB1 antagonism and serotonin reuptake inhibition” (Solvay Pharmaceuticals B.V., priority 2007, dated 2012).
Like-named read-outs stand apart in the source and are kept apart here.

Legend:
[1] = biological target: human cannabinoid CB1 receptor (Homo sapiens, UniProt P21554); test: In vitro affinity for human cannabinoid CB1 receptors ([3H]CP-55,940 binding, CHO cell membranes); conditions: radioligand [3H]-CP-55,940; membranes of CHO cells stably transfected with human CB1 receptor; read-out: CB1 receptor binding [3H]-CP-55,940 pKi (converted)
human cannabinoid CB1 receptor, sequence (P21554 whole entry): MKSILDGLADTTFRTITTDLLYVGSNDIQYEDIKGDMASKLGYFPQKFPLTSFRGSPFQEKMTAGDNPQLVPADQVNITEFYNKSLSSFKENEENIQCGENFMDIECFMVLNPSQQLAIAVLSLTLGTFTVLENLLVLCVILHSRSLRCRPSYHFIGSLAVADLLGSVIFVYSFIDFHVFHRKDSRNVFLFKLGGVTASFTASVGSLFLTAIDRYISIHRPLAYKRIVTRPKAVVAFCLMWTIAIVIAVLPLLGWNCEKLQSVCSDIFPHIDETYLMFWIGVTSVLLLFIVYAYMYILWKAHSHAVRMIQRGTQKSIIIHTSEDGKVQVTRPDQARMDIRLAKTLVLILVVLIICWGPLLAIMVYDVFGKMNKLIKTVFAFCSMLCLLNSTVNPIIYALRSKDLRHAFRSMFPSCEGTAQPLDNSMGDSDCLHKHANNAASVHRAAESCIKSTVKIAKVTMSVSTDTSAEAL
Description: In vitro affinity for human cannabinoid CB1 receptors
After incubation of a freshly prepared cell membrane preparation with the [^3H]-ligand, with or without addition of compounds of the invention, separation of bound and free ligand is performed by filtration over glassfiber filters. Radioactivity on the filter is measured by liquid scintillation counting.

[2] = biological target: T1, serotonin reuptake sites (Rattus norvegicus, UniProt P31652); test: In vitro affinity for serotonin reuptake sites ([3H]-paroxetine binding, Habert 1985)
T1 construct: from tissue
T1 sequence (P31652 whole entry): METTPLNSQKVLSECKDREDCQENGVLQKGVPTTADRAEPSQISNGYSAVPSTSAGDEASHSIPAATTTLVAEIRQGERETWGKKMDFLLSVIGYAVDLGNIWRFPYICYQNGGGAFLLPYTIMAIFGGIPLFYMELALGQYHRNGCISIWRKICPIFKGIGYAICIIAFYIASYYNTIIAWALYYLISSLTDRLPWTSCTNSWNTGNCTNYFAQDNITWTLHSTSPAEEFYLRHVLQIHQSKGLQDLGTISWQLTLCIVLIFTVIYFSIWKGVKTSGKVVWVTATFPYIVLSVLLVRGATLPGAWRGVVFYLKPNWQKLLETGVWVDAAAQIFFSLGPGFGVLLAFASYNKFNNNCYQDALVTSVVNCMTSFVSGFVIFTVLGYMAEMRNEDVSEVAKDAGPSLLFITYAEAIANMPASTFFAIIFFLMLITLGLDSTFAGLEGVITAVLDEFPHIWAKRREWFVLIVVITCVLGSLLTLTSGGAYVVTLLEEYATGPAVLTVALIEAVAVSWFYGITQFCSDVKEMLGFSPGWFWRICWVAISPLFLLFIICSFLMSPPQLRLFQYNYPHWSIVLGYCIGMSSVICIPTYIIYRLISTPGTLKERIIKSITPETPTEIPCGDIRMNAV

[3] = radioligand [3H]-paroxetine, read-out: 5-HT reuptake binding [3H]-paroxetine pKi (converted)

SMILES	Ki [1] [nM]	Ki [2, 3] [nM]	other results
CN(C)CCC=C1c2ccccc2CCc2ccccc21 [amitriptyline]	> 10000	–	–
CN(C)CCCN1c2ccccc2CCc2ccccc21 [imipramine]	> 1000	–	–
CN(C)CCCC1(c2ccc(F)cc2)OCc2cc(C#N)ccc21 (stereo not shown) [citalopram]	> 10000	–	–
CN[C@H]1CC[C@@H](c2ccc(Cl)c(Cl)c2)c2ccccc21 [sertraline]	> 10000	–	–
O=S(=O)(/N=C(/N1CCN(CCCCc2c[nH]c3ccc(F)cc23)CC1)N1CC(c2ccccc2)C(c2ccc(Cl)cc2)=N1)c1ccc(Cl)cc1 (stereo not shown) [Compound 4]	251	25.1	–
c1ccc2c(CCC3CCNCC3)c[nH]c2c1 [indalpine]	> 1000	–	5-HT reuptake binding [3H]-paroxetine pKi ([2]; radioligand [3H]-paroxetine): 8.6
Cc1c(C(=O)NN2CCCCC2)nn(-c2ccc(Cl)cc2Cl)c1-c1ccc(Cl)cc1 [rimonabant]	–	5010	–
Fc1ccc([C@@H]2CCNC[C@H]2COc2ccc3c(c2)OCO3)cc1 [paroxetine]	> 1000	–	–
CCc1c(C(=O)NCCCCCCC(=NOCCN)c2ccc(C(F)(F)F)cc2)nc(-c2ccccc2Cl)n1-c1ccc(Cl)cc1 (racemic) [Compound 2, 2-(2-Chlorophenyl)-1-(4-chlorophenyl)-5-ethyl-1H-imidazole-4-carboxylic acid [7-(2-amino-ethoxyimino)-7-[4-(trifluoromethyl)phenyl]heptyl]amide]	39.8	200	–
CN=C(NS(=O)(=O)c1ccc(Cl)cc1)N1C[C@H](c2ccccc2)C(c2ccc(Cl)cc2)=N1 [SLV319]	–	> 10000	–
CCc1c(C(=O)NN2CCCCC2)nc(-c2ccccc2Cl)n1-c1ccc(Cl)cc1 [WO 03/027076]	–	–	affinity for 5-HT reuptake sites / serotonin reuptake inhibition (in words) [2]: completely inactive; Ki ([2]; read-out: 5-HT reuptake binding [3H]-paroxetine pKi (converted)): > 31600 nM
CCc1c(C(=O)N2CCN(CCCCc3c[nH]c4ccc(F)cc34)CC2)nc(-c2ccccc2Cl)n1-c1ccc(Cl)cc1 [Compound 3, [2-(2-Chlorophenyl)-1-(4-chlorophenyl)-5-ethyl-1H-imidazole-4-yl] {4-[4-(5-flouro-1H-indol-3-yl)butyl]piperazin-1-yl}methanone]	31.6	20	–
NCCO/N=C(/CCCCCCN/C(=N/S(=O)(=O)c1ccc(Cl)cc1)N1CC(c2ccccc2)C(c2ccc(Cl)cc2)=N1)c1ccc(C(F)(F)F)cc1 (stereo not shown) [Compound 1]	251	15.8	affinity for 5-HT reuptake sites / serotonin reuptake inhibition (in words) [2]: as potent a serotonin reuptake inhibitor as fluoxetine
Fc1ccc2[nH]cc(CCCCN3CCNCC3)c2c1 [compound A]	> 1000	–	Ki [2]: 1.26 nM
